Results on 36 molecules are retold here after US12582641B2, “Sulfur-containing compound based on glutarimide skeleton and application thereof” (SHANGHAITECH UNIVERSITY, priority 2019, dated 2026).

For this test, the system named is MM.1S cells. In words: Proliferation inhibition (IC50) in MM.1S cells, cell viability assay. The settings on record: Homo sapiens, MM1.S, 72 h, read-out: IC50 (nM), proliferation inhibitory activity of MM.1S cells (half inhibitory concentration).

Consider `CC[N+](CC)(CC)CCCCCCCCSc1cccc2c1CN(C1CCC(=O)NC1=O)C2=O` (stereo not drawn) [SIAIS1220093, 8-((2-(2,6-dioxopiperidin-3-yl)-1-oxoisoindolin-4-yl)thio)-N,N,N-triethyloctan-1-aminium chloride], for which the IC50 stood at 8.2 nM.

As to `O=C1CCC(N2Cc3c(SCCCCCCCN4CCCCC4)cccc3C2=O)C(=O)N1` (stereo not drawn) [SIAIS1220105, 3-(1-oxo-4-((7-(piperidin-1-yl)heptyl)thio)isoindolin-2-yl)piperidine-2,6-dione], the IC50 was found to be 0.06 nM.

With `CC(C)N(CCCCCCCSc1cccc2c1CN(C1CCC(=O)NC1=O)C2=O)C(C)C` (stereo not drawn) [SIAIS1220107, 3-(4-((7-(diisopropylamino)heptyl)thio)-1-oxoisoindolin-2-yl)piperidine-2,6-dione], the IC50 amounted to 0.03 nM.

Regarding `O=C1CCC(N2Cc3c(SCCCCCCC(=O)N4CCCCC4)cccc3C2=O)C(=O)N1` (stereo not drawn) [SIAIS1220115, 3-(1-oxo-4-((7-oxo-7-(piperidin-1-yl)heptyl)thio)isoindolin-2-yl)piperidine-2,6-dione], the IC50 was 0.05 nM.

As for `CC(C)N(C(=O)CCCCCCSc1cccc2c1CN(C1CCC(=O)NC1=O)C2=O)C(C)C` (stereo not drawn) [SIAIS1220117, 7-((2-(2,6-dioxopiperidin-3-yl)-1-oxoisoindolin-4-yl)thio)-N,N-diisopropylheptanamide], the IC50 was determined as 0.07 nM.

On to `O=C1CCC(N2Cc3c(SCCCCCCCCCSCCCC(F)(F)C(F)(F)F)cccc3C2=O)C(=O)N1` (stereo not drawn) [SIAIS1220131, 3-(1-oxo-4-((9-((4,4,5,5,5-pentafluoropentyl)thio)nonyl)thio)isoindolin-2-yl)piperidine-2,6-dione], for which the IC50 worked out at 9.71 nM.

Consider `O=C1CCC(N2Cc3c(SCCCC(F)(F)C(F)(F)F)cccc3C2=O)C(=O)N1` (stereo not drawn) [SIAIS1220133, 3-(1-oxo-4-((4,4,5,5,5-pentafluoropentyl)thio)isoindolin-2-yl)piperidine-2,6-dione], for which the IC50 amounted to 4.73 nM.

With `O=C1CCC(N2Cc3c(SCCCCCCCCS)cccc3C2=O)C(=O)N1` (stereo not drawn) [SIAIS1220143, 3-(4-((8-mercaptooctyl)thio)-1-oxoisoindolin-2-yl)piperidine-2,6-dione], the IC50 turned out to be 2.73 nM.

Turning to `O=C1CCC(N2Cc3c(SCCCCCCCCC[S+]([O-])CCCC(F)(F)C(F)(F)F)cccc3C2=O)C(=O)N1` (stereo not drawn) [SIAIS1220145, 3-(1-oxo-4-((9-((4,4,5,5,5-pentafluoropentyl)sulfinyl)nonyl)thio)isoindolin-2-yl)piperidine-2,6-dione], the IC50 was 4.73 nM.

Take `O=C1CCC(N2Cc3c(SCCCCCCCCCS(=O)(=O)CCCC(F)(F)C(F)(F)F)cccc3C2=O)C(=O)N1` (stereo not drawn) [SIAIS1220147, 3-(1-oxo-4-((9-((4,4,5,5,5-pentafluoropentyl)sulfonyl)nonyl)thio)isoindolin-2-yl)piperidine-2,6-dione]: the IC50 came to 1.59 nM.

As for `CC12CC3CC(C)(C1)CC(NCCCCCCCSc1cccc4c1CN(C1CCC(=O)NC1=O)C4=O)(C3)C2` (stereo not drawn) [SIAIS1220157, 3-(4-((7-((3,5-dimethyladamantan-1-yl)amino)heptyl)thio)-1-oxoisoindolin-2-yl)piperidine-2,6-dione], the IC50 turned out to be 0.02 nM.

Turning to `O=C1CCC(N2Cc3c(SCCCCCCCNC4C5CC6CC(C5)CC4C6)cccc3C2=O)C(=O)N1` (stereo not drawn) [SIAIS1220159, 3-(4-((7-((adamantan-2-yl)amino)heptyl)thio)-1-oxoisoindolin-2-yl)piperidine-2,6-dione], the IC50 came to 0.01 nM.

Turning to `O=C1CCC(N2Cc3c(SCCCCCCCN4CCCC4)cccc3C2=O)C(=O)N1` (stereo not drawn) [SIAIS1220161, 3-(1-oxo-4-((7-(pyrrolidin-1-yl)heptyl)thio)isoindolin-2-yl)piperidine-2,6-dione], the IC50 turned out to be 0.12 nM.

With `O=C1CCC(N2Cc3c(SCCCCCCCN4CCCCCC4)cccc3C2=O)C(=O)N1` (stereo not drawn) [SIAIS1220163, 3-(4-((7-(azepan-1-yl)heptyl)thio)-1-oxoisoindolin-2-yl)piperidine-2,6-dione], the IC50 was 0.03 nM.

Turning to `O=C1CCC(N2Cc3c(SCc4ccc(CN5CCOCC5)cc4)cccc3C2=O)C(=O)N1` (stereo not drawn) [SIAIS1220167, 3-(4-((4-(morpholinomethyl)benzyl)thio)-1-oxoisoindolin-2-yl)piperidine-2,6-dione], the IC50 stood at 0.25 ± 0.01 nM.

Turning to `O=C(CCCCN1CCCCC1)NCCSc1cccc2c1CN(C1CCC(=O)NC1=O)C2=O` (stereo not drawn) [SIAIS1220169, N-(2-((2-(2,6-dioxopiperidin-3-yl)-1-oxoisoindolin-4-yl)thio)ethyl)-5-(piperidin-1-yl)pentanamide], the IC50 turned out to be 43 nM.

For `O=C1CCC(N2Cc3c(SCCCCCCCNCC45CC6CC(CC(C6)C4)C5)cccc3C2=O)C(=O)N1` (stereo not drawn) [SIAIS1220171, 3-(4-((7-(((adamantan-1-yl)methyl)amino)heptyl)thio)-1-oxoisoindolin-2-yl)piperidine-2,6-dione], the IC50 was 0.044 ± 0.003 nM.

For the molecule `O=C1CCC(N2Cc3c(SCCCCCCNC45CC6CC(CC(C6)C4)C5)cccc3C2=O)C(=O)N1` (stereo not drawn) [SIAIS1220177, 3-(4-((6-((adamantan-1-yl)amino)hexyl)thio)-1-oxoisoindolin-2-yl)piperidine-2,6-dione], the IC50 turned out to be 0.041 ± 0.018 nM.

On to `O=C1CCC(N2Cc3c(SCCCCCCNC4C5CC6CC(C5)CC4C6)cccc3C2=O)C(=O)N1` (stereo not drawn) [SIAIS1220179, 3-(4-((6-((adamantan-2-yl)amino)hexyl)thio)-1-oxoisoindolin-2-yl)piperidine-2,6-dione], for which the IC50 came to 0.036 ± 0.01 nM.

Take `O=C1CCC(N2Cc3c(SCCCCCCNC4CCCCC4)cccc3C2=O)C(=O)N1` (stereo not drawn) [SIAIS1220183, 3-(4-((6-(cyclohexylamino)hexyl)thio)-1-oxoisoindolin-2-yl)piperidine-2,6-dione]: the IC50 came to 0.197 nM.

Turning to `O=C1CCC(N2Cc3c(SCCCCCCCNC4CCCCC4)cccc3C2=O)C(=O)N1` (stereo not drawn) [SIAIS1220185, 3-(4-((7-(cyclohexylamino)heptyl)thio)-1-oxoisoindolin-2-yl)piperidine-2,6-dione], the IC50 is 0.026 ± 0.007 nM.

Consider `O=C1CCC(N2Cc3c(SCCCCCCCNc4ccccc4)cccc3C2=O)C(=O)N1` (stereo not drawn) [SIAIS1220187, 3-(1-oxo-4-((7-(phenylamino)heptyl)thio)isoindolin-2-yl)piperidine-2,6-dione], for which the IC50 was found to be 0.598 nM.

As for `CN(CCCCCCCSc1cccc2c1CN(C1CCC(=O)NC1=O)C2=O)c1ccccc1` (stereo not drawn) [SIAIS1220189, 3-(4-((7-(methyl(phenyl)amino)heptyl)thio)-1-oxoisoindolin-2-yl)piperidine-2,6-dione], the IC50 stood at 0.553 nM.

Regarding `O=C1CCC(N2Cc3c(SCCCCCCCN4CCCCCCC4)cccc3C2=O)C(=O)N1` (stereo not drawn) [SIAIS1220193, 3-(4-((7-(azocan-1-yl)heptyl)thio)-1-oxoisoindolin-2-yl)piperidine-2,6-dione], the IC50 is 0.03 ± 0.01 nM.

`O=C1CCC(N2Cc3c(SCCCCCCC(=O)NC45CC6CC(CC(C6)C4)C5)cccc3C2=O)C(=O)N1` (stereo not drawn) [SIAIS1220195, N-(adamantan-1-yl)-7-((2-(2,6-dioxopiperidin-3-yl)-1-oxoisoindolin-4-yl)thio)heptanamide]: the IC50 worked out at 0.048 nM.

On to `CC12CC3CC(C)(C1)CC(NC(=O)CCCCCCSc1cccc4c1CN(C1CCC(=O)NC1=O)C4=O)(C3)C2` (stereo not drawn) [SIAIS1220197, N-(3,5-dimethyladamantan-1-yl)-7-((2-(2,6-dioxopiperidin-3-yl)-1-oxoisoindolin-4-yl)thio)heptanamide], for which the IC50 is 0.578 nM.

With `O=C1CCC(N2Cc3c(SCCCCCCC(=O)NC4C5CC6CC(C5)CC4C6)cccc3C2=O)C(=O)N1` (stereo not drawn) [SIAIS1220199, N-(adamantan-2-yl)-7-((2-(2,6-dioxopiperidin-3-yl)-1-oxoisoindolin-4-yl)thio)heptanamide], the IC50 came to 0.026 ± 0.001 nM.

On to `O=C1CCC(N2Cc3c(SCc4ccc(CNC56CC7CC(CC(C7)C5)C6)cc4)cccc3C2=O)C(=O)N1` (stereo not drawn) [SIAIS1221003, 3-(4-((4-(((adamantan-1-yl)amino)methyl)benzyl)thio)-1-oxoisoindolin-2-yl)piperidine-2,6-dione], for which the IC50 was found to be 0.024 ± 0.01 nM.

`O=C1CCC(N2Cc3c(SCc4ccc(CNC5C6CC7CC(C6)CC5C7)cc4)cccc3C2=O)C(=O)N1` (stereo not drawn) [SIAIS1221005, 3-(4-((4-((adamantan-2-ylamino)methyl)benzyl)thio)-1-oxoisoindolin-2-yl)piperidine-2,6-dione]: the IC50 was 0.035 ± 0.007 nM.

Regarding `O=C1CCC(N2Cc3c(SCCCCCCNCC45CC6CC(CC(C6)C4)C5)cccc3C2=O)C(=O)N1` (stereo not drawn) [SIAIS1221013, 3-(4-((6-((adamantan-1-ylmethyl)amino)hexyl)thio)-1-oxoisoindolin-2-yl)piperidine-2,6-dione], the IC50 worked out at 0.028 ± 0.012 nM.

Take `O=C1CCC(N2Cc3c(SCCCCCCCN4CCC5(CCCCC5)CC4)cccc3C2=O)C(=O)N1` (stereo not drawn) [SIAIS1221015, 3-(4-((7-(3-azaspiro[5.5]undecan-3-yl)heptyl)thio)-1-oxoisoindolin-2-yl)piperidine-2,6-dione]: the IC50 was determined as 0.04 ± 0.01 nM.

On to `CC1(C)[C@@H]2CC[C@@]1(C)[C@@H](NCCCCCCCSc1cccc3c1CN(C1CCC(=O)NC1=O)C3=O)C2` (stereo partly drawn) [SIAIS1221019, 3-(1-oxo-4-((7-(((1R,2S,4R)-1,7,7-trimethylbicyclo[2.2.1]heptan-2-yl)amino)heptyl)thio)isoindolin-2-yl)piperidine-2,6-dione], for which the IC50 was determined as 0.007 nM.

Turning to `CC1CC(C)CN(CCCCCCCSc2cccc3c2CN(C2CCC(=O)NC2=O)C3=O)C1` (stereo not drawn) [SIAIS1221021, 3-(4-((7-(3,5-dimethylpiperidin-1-yl)heptyl)thio)-1-oxoisoindolin-2-yl)piperidine-2,6-dione], the IC50 came to 0.047 ± 0.001 nM.

`O=C1CCC(N2Cc3c(SCCCCCCCSC45CC6CC(CC(C6)C4)C5)cccc3C2=O)C(=O)N1` (stereo not drawn) [SIAIS1221025, 3-(4-((7-(adamantan-1-ylthio)heptyl)thio)-1-oxoisoindolin-2-yl)piperidine-2,6-dione]: the IC50 worked out at 0.061 nM.

Turning to `CC1(C)CCN(CCCCCCCSc2cccc3c2CN(C2CCC(=O)NC2=O)C3=O)CC1` (stereo not drawn) [SIAIS1221027, 3-(4-((7-(4,4-dimethylpiperidin-1-yl)heptyl)thio)-1-oxoisoindolin-2-yl)piperidine-2,6-dione], the IC50 was determined as 0.038 ± 0.006 nM.

As to `CC1(C)CCC(NCCCCCCCSc2cccc3c2CN(C2CCC(=O)NC2=O)C3=O)CC1` (stereo not drawn) [SIAIS1221029, 3-(4-((7-((4,4-dimethylcyclohexyl)amino)heptyl)thio)-1-oxoisoindolin-2-yl)piperidine-2,6-dione], the IC50 was found to be 0.025 nM.
